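A five-concentration, 48-hour dose response in 96-well plates underlies each endpoint, interpolated linearly between surrounding concentrations. GI50: concentration for 50% inhibition of growth.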 Activity calls are given as the source filed them. Cut-off read from the data, not from the text of the source: active = GI50 up to about 1.1 µM and inactive = higher.

Test systems include NCI-H226; NCI/ADR-RES; SNB-75; A549; UO-31; HT-29; U-251; SW-620; SK-MEL-28; RXF 393; 786-0; SF-539; SR; M14; MDA-MB-435; CCRF-CEM; SNB-19; T47D; SF-295.
Holding throughout (assay): NCI-60 cell line screen, 48 h

Consider `O=C(O)CCCSc1ccccc1`, for which the GI50 in the assay on NCI-H226, in the assay on NCI/ADR-RES, in the assay on SNB-75, with A549, with UO-31 and with HT-29 was > 100 µM (inactive) each time. The GI50 with U-251, with SW-620, in the assay on SK-MEL-28, in the assay on RXF 393, in the assay on 786-0 and in the assay with SF-539 was > 100 µM (inactive) each time. The GI50 in the assay on SR, in the assay on M14, with MDA-MB-435, in the assay with CCRF-CEM, with SNB-19 and in the assay with T47D was > 100 µM (inactive) in each case. In the assay with SF-295, the GI50 was > 100 µM (inactive).

As to `CC(C)CCC1(O)O[C@H]2C[C@H]3[C@@H]4CCC5CC(=O)C=C[C@]5(C)[C@H]4CC[C@]3(C)[C@H]2[C@@H]1C` (stereo not given in full), the GI50 with NCI-H226 is 0.612 µM (active); in the assay on NCI/ADR-RES, 15.6 µM (inactive); with SNB-75 it was 14.3 µM (inactive); in the assay with A549, 14.7 µM (inactive); in the assay on UO-31 it was 16.6 µM (inactive); with HT-29, 7.64 µM (inactive). Besides, the GI50 with U-251 is 10.7 µM (inactive); in the assay on SW-620, 12.1 µM (inactive); in the assay on SK-MEL-28, 11.5 µM (inactive); in the assay on RXF 393, 11.8 µM (inactive); in the assay with 786-0, 12.3 µM (inactive); in the assay on SF-539, 17.6 µM (inactive). In addition, the GI50 in the assay on SR is 8.36 µM (inactive); in the assay on M14, 15.9 µM (inactive); with MDA-MB-435, 11.6 µM (inactive); with CCRF-CEM it was 3.18 µM (inactive); in the assay on SNB-19, 17.5 µM (inactive); in the assay on T47D, 12 µM (inactive). Also, the GI50 in the assay on SF-295 was 11.7 µM (inactive).

As to `C#CC(O)/C=C/CCCCCCC#CC/C=C\CC#CCCCCCCCCC(O)C#C` (stereo not given), the GI50 is 15.6 µM (inactive) in the assay with NCI-H226; 3.39 µM (inactive) in the assay on NCI/ADR-RES; 9.1 µM (inactive) in the assay with SNB-75; 8.43 µM (inactive) with A549; 0.667 µM (active) in the assay with UO-31; 2.74 µM (inactive) with HT-29. Moreover, the GI50 in the assay on U-251 is 20.5 µM (inactive); in the assay with SW-620 it was 3.5 µM (inactive); with SK-MEL-28, 3.42 µM (inactive); with RXF 393 it was 14.6 µM (inactive); with 786-0 it was 2.08 µM (inactive); in the assay with SF-539, 20.8 µM (inactive). Further, the GI50 was 2.37 µM (inactive) with SR; 1.11 µM (active) in the assay on M14; 2.53 µM (inactive) with MDA-MB-435; 0.0836 µM (active) in the assay on CCRF-CEM; 20 µM (inactive) in the assay with SNB-19; 10.5 µM (inactive) in the assay with T47D. Further, in the assay on SF-295, the GI50 was 15.1 µM (inactive).

Turning to `CC(=O)Nc1ccc(CNc2cc(=O)[nH]c(=O)[nH]2)cc1`, the GI50 in the assay on NCI-H226, with NCI/ADR-RES, with SNB-75, in the assay with A549, in the assay on UO-31 and in the assay on HT-29 was > 100 µM (inactive) in each case. For the same molecule, the GI50 in the assay with U-251, in the assay with SW-620, with SK-MEL-28, in the assay with RXF 393, with 786-0 and with SF-539 was > 100 µM (inactive) throughout. Besides, the GI50 with SR, in the assay on M14, in the assay on MDA-MB-435, in the assay with CCRF-CEM, in the assay with SNB-19 and in the assay with T47D was > 100 µM (inactive) in each case. Further, the GI50 with SF-295 was > 100 µM (inactive).

As for `CC1(C)CCCC2CC2CCC(C)(C)C1=O` (stereo not given), the GI50 was 43.8 µM (inactive) in the assay with NCI-H226; 28.8 µM (inactive) with NCI/ADR-RES; 71 µM (inactive) in the assay with SNB-75; 42.4 µM (inactive) with A549; > 100 µM (inactive) in the assay on UO-31; 44.7 µM (inactive) in the assay with HT-29. For the same molecule, the GI50 in the assay with U-251 is 19.1 µM (inactive); in the assay on SW-620, > 100 µM (inactive); in the assay on SK-MEL-28, > 100 µM (inactive); in the assay on RXF 393, 27.4 µM (inactive); in the assay with 786-0, 28.8 µM (inactive); in the assay with SF-539 it was > 100 µM (inactive). Moreover, the GI50 was 10.8 µM (inactive) in the assay with SR; 42 µM (inactive) in the assay with M14; 39.5 µM (inactive) with MDA-MB-435; 15.7 µM (inactive) with CCRF-CEM; > 100 µM (inactive) with SNB-19; > 100 µM (inactive) with T47D. Further, the GI50 with SF-295 is > 100 µM (inactive).

With `CSc1c(C#N)c(O)nc(N)c1C(=O)Nc1ccc(Cl)cc1`, the GI50 in the assay with NCI-H226 was 28 µM (inactive); in the assay with NCI/ADR-RES, 17.4 µM (inactive); in the assay on SNB-75 it was 37.8 µM (inactive); in the assay on A549 it was 13.4 µM (inactive); with UO-31, 11.2 µM (inactive); in the assay with HT-29, 22.2 µM (inactive). The GI50 is 19.5 µM (inactive) with U-251; 5.65 µM (inactive) with SW-620; 14.7 µM (inactive) in the assay on SK-MEL-28; 23.6 µM (inactive) in the assay with RXF 393; 7.36 µM (inactive) with 786-0; 16.4 µM (inactive) in the assay with SF-539. Further, the GI50 in the assay with SR was > 69.2 µM (inactive); with M14 it was 5.2 µM (inactive); in the assay on MDA-MB-435, 3.55 µM (inactive); in the assay on CCRF-CEM it was 30.3 µM (inactive); in the assay with SNB-19, 31.8 µM (inactive); with T47D it was 8.38 µM (inactive). Also, the GI50 in the assay on SF-295 is 11 µM (inactive).

For the molecule `CC1(C)CCC2=C(O1)/C(=N\Nc1ccc(S(N)(=O)=O)cc1)c1ccccc1C2=O`, the GI50 in the assay on NCI-H226 is 4.99 µM (inactive); in the assay on NCI/ADR-RES it was 20.2 µM (inactive); in the assay on SNB-75, 4.38 µM (inactive); in the assay on A549, 14.6 µM (inactive); in the assay with UO-31, 18.2 µM (inactive); in the assay with HT-29, 14.7 µM (inactive). The GI50 in the assay on U-251 was 8.73 µM (inactive); in the assay on SW-620, 20.7 µM (inactive); in the assay with SK-MEL-28 it was 18.7 µM (inactive); in the assay on RXF 393, 5.37 µM (inactive); in the assay with 786-0 it was 7.5 µM (inactive); in the assay with SF-539, 10.4 µM (inactive). In addition, the GI50 with SR was 5.61 µM (inactive); in the assay on M14 it was 16.1 µM (inactive); in the assay with MDA-MB-435 it was 10.7 µM (inactive); with CCRF-CEM, 11.3 µM (inactive); in the assay with SNB-19, 16.2 µM (inactive); in the assay with T47D it was 15.6 µM (inactive). Besides, the GI50 in the assay on SF-295 is 11.8 µM (inactive).

For the molecule `Clc1cc2ncn(C3CCCO3)c2cc1Cl` (stereo not given), the GI50 in the assay on NCI-H226 was 54.1 µM (inactive); in the assay with NCI/ADR-RES, 99.8 µM (inactive); with SNB-75, 26.4 µM (inactive); in the assay with A549 it was 75.9 µM (inactive); in the assay with UO-31, 17.7 µM (inactive); in the assay with HT-29 it was 68.4 µM (inactive). In addition, the GI50 in the assay with U-251 was 69.7 µM (inactive); in the assay on SW-620, 98.2 µM (inactive); in the assay on SK-MEL-28, > 100 µM (inactive); in the assay on RXF 393 it was 81.3 µM (inactive); in the assay on 786-0, > 100 µM (inactive); in the assay with SF-539 it was > 100 µM (inactive). Moreover, the GI50 in the assay with SR is 48.3 µM (inactive); with M14, > 100 µM (inactive); with MDA-MB-435 it was > 100 µM (inactive); in the assay on CCRF-CEM, > 100 µM (inactive); with SNB-19, > 100 µM (inactive); in the assay on T47D it was 66.2 µM (inactive). Besides, the GI50 with SF-295 was > 100 µM (inactive).

`CCCCCCNCCc1c[nH]cn1`: the GI50 in the assay on NCI-H226, with NCI/ADR-RES, with SNB-75, with A549, in the assay on UO-31 and in the assay on HT-29 was > 100 µM (inactive) in each case. For the same molecule, the GI50 in the assay on U-251, in the assay on SW-620, in the assay on SK-MEL-28, with RXF 393, with 786-0 and in the assay with SF-539 was > 100 µM (inactive) throughout. For the same molecule, the GI50 in the assay with SR, in the assay with M14, in the assay on MDA-MB-435, in the assay on CCRF-CEM, with SNB-19 and in the assay on T47D was > 100 µM (inactive) throughout. Moreover, the GI50 in the assay on SF-295 is > 100 µM (inactive).

For the molecule `Cn1cc(NC(=O)Nc2cc(C(=O)Nc3cc(C(=O)Nc4ccc(S(=O)(=O)O)c5cc(S(=O)(=O)O)ccc45)n(C)c3)n(C)c2)cc1C(=O)Nc1cc(C(=O)Nc2ccc(S(=O)(=O)O)c3cc(S(=O)(=O)O)ccc23)n(C)c1`, the GI50 with NCI-H226 was > 100 µM (inactive); in the assay on NCI/ADR-RES, > 100 µM (inactive); in the assay with SNB-75, > 100 µM (inactive); with A549, 85.7 µM (inactive); with UO-31, > 100 µM (inactive); in the assay on HT-29, > 100 µM (inactive). For the same molecule, the GI50 in the assay on U-251, in the assay with SW-620, in the assay on SK-MEL-28, in the assay on RXF 393, in the assay with 786-0 and in the assay with SF-539 was > 100 µM (inactive) throughout. Moreover, the GI50 with SR, in the assay on M14, with MDA-MB-435, with CCRF-CEM, in the assay on SNB-19 and with T47D was > 100 µM (inactive) each time. For the same molecule, the GI50 in the assay with SF-295 was > 100 µM (inactive).

These data come from ChEMBL document CHEMBL1201862, “PubChem BioAssay data set” (2004).
